Read-outs that look alike come from different tables or passages of the source.
Key:
GluN1/GluN2C [1] = biological target: GluN1/GluN2C (Rattus norvegicus, UniProt P35439+Q00961); assay: Two-electrode voltage-clamp recordings, Xenopus laevis oocytes, GluN1/GluN2C; type: cell-based; parameters: GluN2B (NM_012574.1), GluN2C (NM_012575.3), and GluN2D (NM_022797.2) were provided by; expressed in transfected cells; host or cells: Xenopus laevis oocytes (cRNA injection); details: 100 μM glutamate, 30 μM glycine; for IC50: read-out: IC50 GluN2C [95% CI]; for remaining activity at 30 µM: 30 μM test compound, mean ± SEM, read-out: I 30 μM / I control GluN2C
GluN1/GluN2C (Rattus norvegicus, UniProt P35439+Q00961), sequence (Q00961 20-1237, other chains not shown): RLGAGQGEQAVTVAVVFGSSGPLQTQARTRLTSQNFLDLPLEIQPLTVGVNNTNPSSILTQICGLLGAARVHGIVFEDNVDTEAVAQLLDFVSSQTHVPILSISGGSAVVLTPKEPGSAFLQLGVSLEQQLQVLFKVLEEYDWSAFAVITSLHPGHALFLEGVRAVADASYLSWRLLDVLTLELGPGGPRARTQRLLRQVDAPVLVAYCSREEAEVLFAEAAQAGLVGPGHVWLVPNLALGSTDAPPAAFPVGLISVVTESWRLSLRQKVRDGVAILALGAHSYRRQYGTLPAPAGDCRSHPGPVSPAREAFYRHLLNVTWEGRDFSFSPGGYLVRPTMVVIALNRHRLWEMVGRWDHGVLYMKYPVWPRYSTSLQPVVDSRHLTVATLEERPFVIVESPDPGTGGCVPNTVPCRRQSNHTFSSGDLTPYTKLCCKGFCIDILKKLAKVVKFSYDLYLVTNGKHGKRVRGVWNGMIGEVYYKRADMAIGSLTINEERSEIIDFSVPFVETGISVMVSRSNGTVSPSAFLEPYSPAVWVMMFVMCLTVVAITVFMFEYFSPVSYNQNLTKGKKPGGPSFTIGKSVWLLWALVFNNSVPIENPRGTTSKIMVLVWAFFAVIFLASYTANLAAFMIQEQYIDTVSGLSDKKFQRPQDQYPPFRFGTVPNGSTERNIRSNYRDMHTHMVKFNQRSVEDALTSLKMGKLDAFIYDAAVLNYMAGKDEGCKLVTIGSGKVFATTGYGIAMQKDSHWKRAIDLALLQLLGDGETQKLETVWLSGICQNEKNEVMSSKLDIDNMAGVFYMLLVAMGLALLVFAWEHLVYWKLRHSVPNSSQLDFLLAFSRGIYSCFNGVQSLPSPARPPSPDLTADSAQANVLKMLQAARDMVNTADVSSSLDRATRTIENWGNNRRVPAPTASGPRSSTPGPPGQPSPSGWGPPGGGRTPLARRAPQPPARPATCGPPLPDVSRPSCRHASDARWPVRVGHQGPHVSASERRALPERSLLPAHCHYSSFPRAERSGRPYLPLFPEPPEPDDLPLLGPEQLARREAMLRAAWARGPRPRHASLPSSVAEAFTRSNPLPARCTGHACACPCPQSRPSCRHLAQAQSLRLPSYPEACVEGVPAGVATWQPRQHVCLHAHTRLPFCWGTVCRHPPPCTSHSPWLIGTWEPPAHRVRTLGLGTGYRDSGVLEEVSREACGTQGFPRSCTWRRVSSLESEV
Procedure: (§1) All target compounds were evaluated for NMDAR antagonism using two-electrode voltage-clamp recordings from Xenopus laevis oocytes coexpressing recombinant GluN1 and GluN2A-D subunits (Table 1).[32],[42],[33] All analogues were assessed as either a racemic (2b, 2e–2r) or diastereomeric (2d) mixture to simplify purification and streamline in vitro analysis. […] Moreover, as illustrated by the significant loss of NMDAR activity observed with nitrile 2e, the DQP allosteric site necessitated an H-bond donor/acceptor relationship at the carboxylate position. […] The loss of NMDAR activity observed with the trifluoro analogue 2j (Table S1) reinforced the necessity for an H-bond donor/acceptor relationship to maintain allosteric binding and established that fluorine substitution alone is ineffective. […] A single methyl substitution of the amide in compound 2q improved selectivity against GluN2A and had similar potency as 2a, whereas dual methyl substitution reduced potency (2r). We expect that this is likely due to the ability of the […] of the amide to accept hydrogen bonds while the amide can readily donate a proton.
(§2) Unfertilized Xenopus laevis oocytes were obtained from Ecocyte (Austin, TX), or ovaries were purchased from Xenopus 1 (Dexter, MI) and oocytes prepared as previously described.[42],[47] Two-electrode voltage-clamp recordings were performed on oocytes expressing recombinant rat GluN1/GluN2A, GluN1/GluN2B, GluN1/GluN2C, or GluN1/GluN2D. cDNAs for rat GluN1-1a (referred to as GluN1; NCBI Reference Sequence NM_017010.2), GluN2A (NM_012573.4), GluN2B (NM_012574.1), GluN2C (NM_012575.3), and GluN2D (NM_022797.2) were provided by Dr. S. Heinemann from the Salk Institute, Dr. S. Nakanishi from Kyoto University, and Dr. P. Seeburg from the University of Heidelberg. Oocyte isolation, cRNA synthesis, and cRNA injections were performed as previously described.[32],[33],[47] Briefly, Xenopus laevis oocytes were injected with 5–10 ng of cRNA in RNase-free water with the GluN1:GluN2 ratio ranging from 1:1 to 1:5. Oocytes were incubated at 15–19 °C in Barth’s solution consisting of (in mM) 88 NaCl, 1 KCl, 2.4 NaHCO3, 10 HEPES, 0.82 MgSO4, 0.33 Ca(NO3)2, and 0.41 CaCl2 supplemented with 100 μg/mL gentamycin, 40 μg/mL streptomycin, and 50 μg/mL penicillin. Recordings were performed 2–4 days after injection with extracellular recording solution containing (in mM) 90 NaCl, 1 KCl, 10 HEPES, 0.5 BaCl2, and 0.01 EDTA at pH 7.4 adjusted with NaOH. To prevent a gradual increase in current response over the course of the experiment, some oocytes expressing GluN1/GluN2A were injected with 20–50 nL of 2–50 mM K-BAPTA. Concentration–response curves for test compounds were generated by applying a maximally effective concentration of glutamate (100 μM) and glycine (30 μM), followed by glutamate and glycine with variable concentrations of test compounds up to 30 μM. The test compounds were prepared as 20 mM stock solutions in DMSO and diluted to the final concentration in recording solution. The DMSO content was 0.05–0.5% (v/v). […] Methods for off-target analysis are given in the Supporting Information.
(§3) Confidence intervals were determined for the log(IC50). The time course of relaxation during inhibitor application or deactivation following rapid removal of NMDA or glutamate was fitted by the equation [drawing 5] 2

GluN1/GluN2C [2] = biological target: GluN1/GluN2C (Rattus norvegicus, UniProt Q00961); assay: as above; type: cell-based; parameters: GluN2B (NM_012574.1), GluN2C (NM_012575.3), and GluN2D (NM_022797.2) were provided by; expressed in transfected cells; host or cells: Xenopus laevis oocytes (cRNA injection); details: 100 μM glutamate, 30 μM glycine, mean ± SEM
GluN1/GluN2C (Rattus norvegicus, UniProt Q00961), sequence (Q00961 20-1237, other chains not shown): as above
Procedure: as §1, §2, §3

GluN1/GluN2B [3] = biological target: T1, GluN1/GluN2B (Rattus norvegicus, UniProt P35439+Q00960); assay: Two-electrode voltage-clamp recordings, Xenopus laevis oocytes, GluN1/GluN2B; type: cell-based; details: 100 μM glutamate, 30 μM glycine; for remaining activity at 30 µM: 30 μM test compound, mean ± SEM, read-out: I 30 μM / I control GluN2B; for IC50: read-out: IC50 GluN2B [95% CI]
T1 construct: GluN2B (NM_012574.1), GluN2C (NM_012575.3), and GluN2D (NM_022797.2) were provided by; expressed in transfected cells; host or cells: Xenopus laevis oocytes (cRNA injection)
T1 sequence (Q00960 27-1482, other chains not shown): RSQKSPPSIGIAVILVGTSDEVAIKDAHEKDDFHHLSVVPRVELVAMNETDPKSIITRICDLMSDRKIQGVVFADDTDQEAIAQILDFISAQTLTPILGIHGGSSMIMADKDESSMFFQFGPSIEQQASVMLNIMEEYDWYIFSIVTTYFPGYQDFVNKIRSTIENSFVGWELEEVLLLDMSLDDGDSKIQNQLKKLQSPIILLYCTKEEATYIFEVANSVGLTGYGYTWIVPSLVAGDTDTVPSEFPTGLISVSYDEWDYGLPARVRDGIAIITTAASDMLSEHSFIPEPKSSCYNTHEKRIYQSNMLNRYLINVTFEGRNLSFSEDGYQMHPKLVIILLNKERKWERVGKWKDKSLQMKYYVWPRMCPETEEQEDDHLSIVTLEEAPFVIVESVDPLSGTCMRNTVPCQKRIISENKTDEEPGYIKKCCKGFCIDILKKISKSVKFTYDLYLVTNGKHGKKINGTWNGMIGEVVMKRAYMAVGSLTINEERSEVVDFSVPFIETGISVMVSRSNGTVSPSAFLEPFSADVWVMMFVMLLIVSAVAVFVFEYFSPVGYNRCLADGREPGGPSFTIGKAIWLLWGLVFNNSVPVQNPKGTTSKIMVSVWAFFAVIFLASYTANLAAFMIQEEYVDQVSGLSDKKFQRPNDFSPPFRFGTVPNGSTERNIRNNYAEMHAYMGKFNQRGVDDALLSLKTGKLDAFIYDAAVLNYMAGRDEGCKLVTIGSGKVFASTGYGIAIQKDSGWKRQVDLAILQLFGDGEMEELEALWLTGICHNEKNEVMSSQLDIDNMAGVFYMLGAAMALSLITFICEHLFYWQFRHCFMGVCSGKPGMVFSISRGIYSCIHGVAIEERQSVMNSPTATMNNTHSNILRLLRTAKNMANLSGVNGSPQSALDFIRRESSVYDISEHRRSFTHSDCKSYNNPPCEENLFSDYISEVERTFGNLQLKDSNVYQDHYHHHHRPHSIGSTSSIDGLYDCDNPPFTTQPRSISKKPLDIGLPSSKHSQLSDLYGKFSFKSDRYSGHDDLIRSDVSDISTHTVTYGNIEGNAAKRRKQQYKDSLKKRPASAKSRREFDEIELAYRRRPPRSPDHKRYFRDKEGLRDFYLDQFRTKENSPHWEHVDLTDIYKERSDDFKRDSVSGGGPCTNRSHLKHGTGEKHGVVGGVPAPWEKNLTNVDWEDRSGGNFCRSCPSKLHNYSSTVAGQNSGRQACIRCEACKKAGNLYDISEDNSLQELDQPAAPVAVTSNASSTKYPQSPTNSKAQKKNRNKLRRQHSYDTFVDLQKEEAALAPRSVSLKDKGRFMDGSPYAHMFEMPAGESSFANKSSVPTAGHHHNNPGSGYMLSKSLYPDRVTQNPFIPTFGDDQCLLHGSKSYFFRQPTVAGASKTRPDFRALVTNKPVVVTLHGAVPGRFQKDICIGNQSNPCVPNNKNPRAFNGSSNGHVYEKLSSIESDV
Procedure: as §1, §2, §3

GluN1/GluN2D [4] = biological target: GluN1/GluN2D (Rattus norvegicus, UniProt P35439+Q62645); assay: Two-electrode voltage-clamp recordings, Xenopus laevis oocytes, GluN1/GluN2D; type: cell-based; parameters: GluN2B (NM_012574.1), GluN2C (NM_012575.3), and GluN2D (NM_022797.2) were provided by; expressed in transfected cells; host or cells: Xenopus laevis oocytes (cRNA injection); details: 100 μM glutamate, 30 μM glycine; for IC50: read-out: IC50 GluN2D [95% CI]; for remaining activity at 30 µM: 30 μM test compound, mean ± SEM, read-out: I 30 μM / I control GluN2D
GluN1/GluN2D (Rattus norvegicus, UniProt P35439+Q62645), sequence (Q62645 28-1323, other chains not shown): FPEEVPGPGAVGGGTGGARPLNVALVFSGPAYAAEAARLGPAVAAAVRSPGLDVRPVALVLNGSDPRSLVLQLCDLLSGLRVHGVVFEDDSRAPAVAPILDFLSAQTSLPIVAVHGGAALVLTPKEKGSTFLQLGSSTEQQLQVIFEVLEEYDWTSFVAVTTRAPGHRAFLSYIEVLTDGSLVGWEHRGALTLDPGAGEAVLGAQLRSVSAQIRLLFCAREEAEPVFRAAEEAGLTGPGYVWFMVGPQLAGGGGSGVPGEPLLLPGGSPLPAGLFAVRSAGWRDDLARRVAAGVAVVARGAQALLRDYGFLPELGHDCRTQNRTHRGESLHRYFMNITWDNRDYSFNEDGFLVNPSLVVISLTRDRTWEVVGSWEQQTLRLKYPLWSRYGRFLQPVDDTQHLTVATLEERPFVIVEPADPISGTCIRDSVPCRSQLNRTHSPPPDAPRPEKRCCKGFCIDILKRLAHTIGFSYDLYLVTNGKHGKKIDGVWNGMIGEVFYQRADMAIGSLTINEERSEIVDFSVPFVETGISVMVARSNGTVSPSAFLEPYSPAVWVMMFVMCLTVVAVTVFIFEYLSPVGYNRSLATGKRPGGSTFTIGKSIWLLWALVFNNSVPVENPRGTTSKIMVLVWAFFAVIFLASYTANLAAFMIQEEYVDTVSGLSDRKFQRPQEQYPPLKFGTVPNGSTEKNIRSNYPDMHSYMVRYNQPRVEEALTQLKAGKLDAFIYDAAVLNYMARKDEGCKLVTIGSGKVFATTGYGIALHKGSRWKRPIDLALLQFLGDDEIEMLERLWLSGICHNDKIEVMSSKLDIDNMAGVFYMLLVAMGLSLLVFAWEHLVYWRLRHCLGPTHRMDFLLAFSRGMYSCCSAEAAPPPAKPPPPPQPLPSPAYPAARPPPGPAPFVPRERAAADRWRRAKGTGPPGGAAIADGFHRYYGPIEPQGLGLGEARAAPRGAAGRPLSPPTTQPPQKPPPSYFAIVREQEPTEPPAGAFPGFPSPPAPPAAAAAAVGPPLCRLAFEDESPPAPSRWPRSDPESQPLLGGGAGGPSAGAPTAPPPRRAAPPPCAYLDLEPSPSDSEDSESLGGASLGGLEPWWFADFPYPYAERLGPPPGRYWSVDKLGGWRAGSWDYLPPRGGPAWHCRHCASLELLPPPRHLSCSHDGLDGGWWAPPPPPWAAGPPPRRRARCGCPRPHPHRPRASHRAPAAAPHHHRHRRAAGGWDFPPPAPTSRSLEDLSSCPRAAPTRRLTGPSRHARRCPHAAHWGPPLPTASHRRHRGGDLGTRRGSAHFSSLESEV
Procedure: as §1, §2, §3

GluN1/GluN2D [5] = biological target: GluN1/GluN2D (Rattus norvegicus, UniProt Q62645); assay: as above; type: cell-based; parameters: GluN2B (NM_012574.1), GluN2C (NM_012575.3), and GluN2D (NM_022797.2) were provided by; expressed in transfected cells; host or cells: Xenopus laevis oocytes (cRNA injection); details: for Selectivity 2A IC50 / 2D IC50: GluN2D over GluN2A; for Selectivity 2B IC50 / 2D IC50: GluN2D over GluN2B
GluN1/GluN2D (Rattus norvegicus, UniProt Q62645), sequence (Q62645 28-1323, other chains not shown): as above
Procedure: as §1, §2, §3

GluN1/GluN2A [6] = biological target: T2, GluN1/GluN2A (Rattus norvegicus, UniProt P35439+Q00959); assay: Two-electrode voltage-clamp recordings, Xenopus laevis oocytes, GluN1/GluN2A; type: cell-based; details: 100 μM glutamate, 30 μM glycine; for IC50: read-out: IC50 GluN2A [95% CI]; for remaining activity at 30 µM: 30 μM test compound, mean ± SEM, read-out: I 30 μM / I control GluN2A
T2 construct: expressed in transfected cells; host or cells: Xenopus laevis oocytes (cRNA injection)
Procedure: as §1, §2, §3

GluN1/GluN2B [7] = biological target: T3, GluN1/GluN2B (Rattus norvegicus, UniProt Q00960); assay: Two-electrode voltage-clamp recordings, Xenopus laevis oocytes, GluN1/GluN2B; type: cell-based; details: tested at 3 μM; 100 μM glutamate, 30 μM glycine; mean ± SEM
T3 construct: GluN2B (NM_012574.1), GluN2C (NM_012575.3), and GluN2D (NM_022797.2) were provided by; expressed in transfected cells; host or cells: Xenopus laevis oocytes (cRNA injection)
Procedure: as §1, §2, §3

GluN1/GluN2A [8] = biological target: T4, GluN1/GluN2A (Rattus norvegicus, UniProt Q00959); assay: Two-electrode voltage-clamp recordings, Xenopus laevis oocytes, GluN1/GluN2A; type: cell-based; details: tested at 3 μM; 100 μM glutamate, 30 μM glycine; mean ± SEM
T4 construct: expressed in transfected cells; host or cells: Xenopus laevis oocytes (cRNA injection)
Procedure: as §1, §2, §3

[9] = Brain homogenate tissue binding and stability (RED device); type: in vitro ADME, mouse
Procedure: Carbamazepine (Apin Chemicals) served as a positive control for brain tissue binding. Test compounds and the positive control were initially dissolved in DMSO to make 1 mM stock solutions. […] A rapid equilibrium dialysis (RED) device (Thermo Scientific) containing a dialysis membrane with a molecular weight cutoff of 8000 Da was used to assess tissue binding and metabolic stability. […] The test compounds and positive control (200 μL of 5 μM solution) were added to the red chamber of the dialysis insert, while the white chamber was filled with dialysis buffer (350 μL). The RED device was then sealed with an adhesive film and incubated at 37 °C with shaking (300 rpm) for 4 h. For the initial time point (t = 0 min), 50 μL aliquots of test compounds and the positive control were added to 96-deep well plates (0.7 mL per well) and quenched with 400 μL of MeCN. Following dialysis, another 50 μL aliquot of the tested samples was removed from each well (brain homogenate and buffer) and diluted with an equal volume of the opposite matrix to nullify any matrix effects. […] The supernatant (100 μL) was subsequently transferred to 96-deep well plates for LC-MS/MS analysis. Prodrug metabolism and 2i concentrations were determined by fit-for-purpose LC-MS/MS methods on a nine-point calibration curve ranging from 0.12 to 7.5 μM.

Structure (SMILES) | IC50 (GluN1/GluN2C [1]) | remaining activity at 30 µM (GluN1/GluN2B [3]) | IC50 (GluN1/GluN2B [3]) | IC50 (GluN1/GluN2D [4]) | Selectivity 2A IC50 / 2D IC50 (GluN1/GluN2D [5]) | Selectivity 2B IC50 / 2D IC50 (GluN1/GluN2D [5]) | IC50 (GluN1/GluN2A [6]) | remaining activity at 30 µM (GluN1/GluN2C [1]) | remaining activity at 30 µM (GluN1/GluN2D [4]) | remaining activity at 30 µM (GluN1/GluN2A [6]) | also measured
O=C(O)CCCC(=O)N1N=C(c2c(-c3ccc(Cl)cc3)c3ccccc3[nH]c2=O)CC1c1ccc(Cl)cc1 (stereo not shown) [2b] | 0.9 µM | 57 ± 2.6% | 37 µM | 0.64 µM | 39 fold | 58 fold | 25 µM | – | – | – | I / I control GluN2C (GluN1/GluN2C [2]; tested at 10 μM (footnote b)): 13 ± 1.3 ^b (1,8) %; I / I control GluN2D (GluN1/GluN2D [5]; tested at 10 μM (footnote b), 100 μM glutamate, 30 μM glycine, mean ± SEM): 5.9 ± 1.6 ^b (1,8) %
N[C@@H](CCC(=O)N1N=C(c2c(-c3ccc(Cl)cc3)c3ccccc3[nH]c2=O)CC1c1ccc(Cl)cc1)C(=O)O (stereo partly shown) [2d] | 2.1 µM | 48 ± 4% | 21 µM | 1.1 µM | 14 fold | 19 fold | 15 µM | 16 ± 5% | 3.1 ± 0.59% | 36 ± 5.2% | –
N#CCCC(=O)N1N=C(c2c(-c3ccc(Cl)cc3)c3ccccc3[nH]c2=O)CC1c1ccc(Cl)cc1 (stereo not shown) [2e] | 99 µM | 82 ± 2.4% | – | 28 µM | – | – | – | 67 ± 2.6% | 46 ± 5% | 94 ± 1.4% | –
NC(=O)N1c2ccccc2C=Cc2ccccc21 [Carbamazepine, reference compound] | – | – | – | – | – | – | – | – | – | – | fraction unbound at 4 h, 5 µM ([9]; C57BL/6, mouse, brain homogenate (4 times diluted), pH 7.4, mouse brain tissue binding (free fraction in brain), read-out: % Unbound): 0.135; fraction unbound at 4 h, 5 µM ([9]; C57BL/6, mouse, brain homogenate (4 times diluted), pH 7.4, mouse brain tissue binding, RED, 4 h, read-out: % Bound Mean ± SD (converted)): 0.135; fraction unbound at 4 h, 5 µM ([9]; C57BL/6, mouse, brain homogenate (4 times diluted), pH 7.4, mouse brain tissue binding, RED, 4 h, read-out: % Bound R1 (converted)): 0.131; fraction unbound at 4 h, 5 µM ([9]; C57BL/6, mouse, brain homogenate (4 times diluted), pH 7.4, mouse brain tissue binding, RED, 4 h, read-out: % Bound R2 (converted)): 0.14; fraction unbound at 4 h, 5 µM ([9]; C57BL/6, mouse, brain homogenate (4 times diluted), pH 7.4, mouse brain tissue binding, read-out: fu): 0.135; remaining at 4 h, 5 µM ([9]; C57BL/6, mouse, brain homogenate (4 times diluted), pH 7.4, starting concentration 5 μM, 4 h): 105%; recovery at 4 h, 5 μM ([9]; C57BL/6, pH 7.4, mouse brain tissue binding, RED, 4 h): 91%

More lines, main results first:

IC50 (GluN1/GluN2C [1]) | remaining activity at 30 µM (GluN1/GluN2B [3]) | IC50 (GluN1/GluN2B [3]) | IC50 (GluN1/GluN2D [4]) | Selectivity 2A IC50 / 2D IC50 (GluN1/GluN2D [5]) | Selectivity 2B IC50 / 2D IC50 (GluN1/GluN2D [5]) | IC50 (GluN1/GluN2A [6]) | remaining activity at 30 µM (GluN1/GluN2C [1]) | remaining activity at 30 µM (GluN1/GluN2D [4]) | remaining activity at 30 µM (GluN1/GluN2A [6]) | Structure (SMILES) | also measured
0.57 µM | 48 ± 1.9% | 29 µM | 0.52 µM | 42 fold | 56 fold | 22 µM | 2.3 ± 0.5% | 2.4 ± 0.56% | 29 ± 4.1% | O=C(CCc1nnn[nH]1)N1N=C(c2c(-c3ccc(Cl)cc3)c3ccccc3[nH]c2=O)CC1c1ccc(Cl)cc1 (stereo not shown) [2h] | –
– | 86 ± 2.3% | – | – | – | – | – | 100 ± 2.2% | 86 ± 2.8% | 96 ± 2.1% | O=C(N1N=C(c2c(-c3ccc(Cl)cc3)c3ccccc3[nH]c2=O)CC1c1ccc(Cl)cc1)C(F)(F)F (stereo not shown) [2j] | –
0.51 µM | – | – | 0.31 µM | – | – | – | – | – | – | O=C(O)CC(F)(F)C(=O)N1N=C(c2c(-c3ccc(Cl)cc3)c3ccccc3[nH]c2=O)C[C@@H]1c1ccc(Cl)cc1 [(R)-(+)-2i] | I3 μM/Icontrol GluN2C (GluN1/GluN2C [2]; tested at 3 μM): 52 ± 2.1 (2, 12) %; I3 μM/Icontrol GluN2B (GluN1/GluN2B [7]): 99 ± 2.4 (3, 12) %; I3 μM/Icontrol GluN2D (GluN1/GluN2D [5]; tested at 3 μM, 100 μM glutamate, 30 μM glycine, mean ± SEM): 42 ± 3.5 (2, 13) %; I3 μM/Icontrol GluN2A (GluN1/GluN2A [8]): 103 ± 2.5 (3, 16) %

— paper PMC10485906, “Development of a Dihydroquinoline–Pyrazoline GluN2C/2D-Selective Negative Allosteric Modulator of the N-Methyl-D-aspartate Receptor” (ACS Chemical Neuroscience, 2023)
